Experimental data taken from the supplement of paper PMC10307832.

Columns and labels:
Test in all cases: relative viability (nuclei count vs DMSO), 5 days (fraction); higher = more cells survive
[1] = compound: C1CNCCC1C2=CC(=NN2)C3=CC=NC=C3 + C[C@]1(O)C[C@@H](c2nc(-c3ccc4ccc(-c5ccccc5)nc4c3)c3c(N)nccn32)C1 [Linsitinib] (partner 1 µM)
Outline: (§1)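 Relative viability is defined as nuclei in treated wells over nuclei in vehicle wells. Duplicate plates were run and medians reported. Lung cancer cell lines in 1536-well plates were dosed by pin tool one day after seeding, with one drug or with a fixed anchor-drug dose plus five library-drug doses (not always all listed) in √10 steps, and nuclei were counted after 5 days.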

[2] = compound: O[C@H]1CC[C@H](Nc2ncc3nc(Nc4c(F)cc(F)cc4F)n([C@H]4CCOC4)c3n2)CC1 [Tanzisertib] + Cc1nc(NC(=O)N2CCC[C@H]2C(N)=O)sc1-c1ccnc(C(C)(C)C(F)(F)F)c1 [Alpelisib] (partner 2 µM)
Outline: as §1

[3] = compound: C[C@@H](N)c1ccc(C(=O)Nc2ccnc3[nH]ccc23)cc1 + Nc1ncn([C@H]2C[C@H](O)[C@@H](CO)O2)c(=O)n1 [Decitabine] (partner 2 µM)
Outline: as §1

[4] = compound: C[C@@H](N)c1ccc(C(=O)Nc2ccnc3[nH]ccc23)cc1 + COc1cc2c(Oc3ccc(NC(=O)C4(C(=O)Nc5ccc(F)cc5)CC4)cc3F)ccnc2cc1OCCCN1CCOCC1 [Foretinib] (partner 0.25 µM)
Outline: as §1

| Cell Line | relative viability ([1]; first compound 0.08 µM) | relative viability ([1]; first compound 0.8 µM) | relative viability ([1]; first compound 2.53 µM) | relative viability ([1]; first compound 8 µM) | relative viability ([2]; first compound 0.08 µM) | relative viability ([2]; first compound 0.253 µM) | relative viability ([2]; first compound 0.8 µM) | relative viability ([2]; first compound 2.53 µM) | relative viability ([2]; first compound 8 µM) | relative viability ([3]; first compound 0.04 µM) | relative viability ([3]; first compound 0.1265 µM) | relative viability ([3]; first compound 0.4 µM) | relative viability ([3]; first compound 1.265 µM) | relative viability ([3]; first compound 4 µM) | relative viability ([4]; first compound 0.04 µM) | relative viability ([4]; first compound 0.1265 µM) | relative viability ([4]; first compound 0.4 µM) | relative viability ([4]; first compound 1.265 µM) | relative viability ([4]; first compound 4 µM) |
| --- | --- | --- | --- | --- | --- | --- | --- | --- | --- | --- | --- | --- | --- | --- | --- | --- | --- | --- | --- |
| NCI-H460 | 0.421 | 1.22 | 0.818 | 0.849 | 0.716 | 0.441 | 0.477 | 0.356 | 0.286 | 0.525 | 0.485 | 0.581 | 0.575 | 0.451 | 0.984 | 1.01 | 1 | 0.986 | 1 |
| LOU-NH91 | 0.85 | 1 | 1.14 | 0.962 | 0.755 | 0.706 | 0.716 | 0.694 | 0.549 | 0.755 | 0.79 | 0.78 | 0.69 | 0.577 | 0.814 | 0.981 | 0.851 | 0.804 | 0.683 |
| NCI-H1651 | 0.923 | 0.977 | 0.966 | 1.14 | 1.17 | 0.934 | 1.01 | 0.988 | 0.817 | 0.648 | 0.619 | 0.668 | 0.661 | 0.656 | 0.883 | 0.908 | 0.882 | 0.987 | 0.782 |
| NCI-H441 | 0.65 | 0.361 | 0.753 | 0.497 | 0.925 | 0.69 | 0.674 | 0.713 | 0.635 | 0.276 | 0.279 | 0.225 | 0.258 | 0.238 | 0.988 | 1.05 | 1.02 | – | 0.843 |
